We go through nine compounds from ChEMBL document CHEMBL4627341, “Synthesis and evaluation of anti-tumor activity of novel triazolo[1,5-a] pyrimidine on cancer cells by induction of cellular apoptosis and inhibition of epithelial-to-mesenchymal transition process” (Bioorg Med Chem Lett, 2020).

pIC50: −log10 of the molar value. Activity calls are given as the source filed them. No cut-off for these calls is given here.

Assay [1] concerns LNCaP. Put plainly: Cytotoxicity against human LNCAP cells assessed as reduction in cell viability incubated for 48 hrs by MTT assay. It is filed as functional, cell-based. A general note: Tetrazolium dyes change colour on reduction, which living cells bring about.
In assay [2] the test system is PC-3. The assay can be described thus: Cytotoxicity against human PC3 cells assessed as reduction in cell viability incubated for 48 hrs by MTT assay. As to conditions: PC-3, 48 h. It is filed as functional, cell-based.
In the next assay the test system is NHDF. The assay can be described thus: Cytotoxicity against human HDF cells assessed as reduction in cell viability incubated for 48 hrs by MTT assay. It is filed as cell-based.
Assay [3] has as its system A-375. The assay can be described thus: Cytotoxicity against human A375 cells assessed as reduction in cell viability incubated for 48 hrs by MTT assay. It is filed as functional, cell-based. As to conditions: A-375, 48 h.
Assay [4] has as its system PC-3. The assay can be described thus: Induction of cell death in human PC3 cells assessed as chromatin fragmentation by DAPI staining based inverted fluorescence microscopy. It is filed as functional.
The test system of assay [5] is LNCaP. Put plainly: Inhibition of epithelial-mesenchymal transition in human LNCAP cells assessed as decrease in vimentin mRNA expression level by qRT-PCR analysis. It is filed as functional, cell-based.
Assay [6] deals with LNCaP. Put plainly: Inhibition of epithelial-mesenchymal transition in human LNCAP cells assessed as increase in E-cadherin mRNA expression by qRT-PCR analysis. It is filed as functional, cell-based. In general terms: Real-time PCR tracks product formation cycle by cycle.
Assay [7] deals with LNCaP. The assay can be described thus: Induction of apoptosis in human LNCAP cells assessed as downregulation of Bcl2 mRNA expression by qRT-PCR analysis. It is filed as functional, cell-based.
The subject of assay [8] is A-375. Put plainly: Induction of cell death in human A375 cells assessed as chromatin fragmentation by DAPI staining based inverted fluorescence microscopy. It is filed as functional.
Assay [9] has as its system A-375. The assay can be described thus: Induction of cell death in human A375 cells assessed as morphological changes by DAPI staining based inverted fluorescence microscopy. It is filed as functional.
In assay [10] the test system is LNCaP. The assay can be described thus: Inhibition of cell migration at human LNCAP cells incubated for 24 hrs by phase contrast microscopy based wound healing assay. It is filed as functional.
Assay [11] deals with LNCaP. The assay can be described thus: Induction of cell death in human LNCAP cells assessed as chromatin fragmentation by DAPI staining based inverted fluorescence microscopy. It is filed as functional.
The test system of assay [12] is LNCaP. The assay can be described thus: Induction of cell death in human LNCAP cells assessed as morphological changes by DAPI staining based inverted fluorescence microscopy. It is filed as functional.
Assay [13] has as its system LNCaP. Put plainly: Induction of apoptosis in human LNCAP cells assessed as upregulation of Bax mRNA expression by qRT-PCR analysis. It is filed as functional, cell-based.
Assay [14] concerns PC-3. The assay can be described thus: Induction of cell death in human PC3 cells assessed as morphological changes by DAPI staining based inverted fluorescence microscopy. It is filed as functional.

As for `CNC1=C([N+](=O)[O-])C(c2ccc(Cl)cc2)Nc2ncnn21` (configuration not stated), the pIC50 in the assay on LNCaP [1], in the assay on PC-3 [2], in the assay with NHDF and with A-375 [3] was under 4.00 throughout.

Take `CNC1=C([N+](=O)[O-])C(c2ccccc2)Nc2ncnn21` (configuration not stated): the negative logarithm of the IC50 (pIC50) in the assay on LNCaP [1] was under 4.00; with PC-3 [2], 4.35; with NHDF, under 4.00; with A-375 [3] it was under 4.00.

Consider `CNC1=C([N+](=O)[O-])C(c2ccc(C(F)(F)F)cc2)Nc2ncnn21` (configuration not stated), for which the pIC50 is under 4.00 with LNCaP [1], under 4.00 with PC-3 [2], under 4.00 with NHDF and 4.20 with A-375 [3].

Regarding `CNC1=C([N+](=O)[O-])C(c2ccc([N+](=O)[O-])cc2)Nc2ncnn21` (configuration not stated), the outcome in the assay with PC-3 [4], in the assay with LNCaP [7], in the assay with A-375 [8], with A-375 [9], with LNCaP [11] and in the assay with LNCaP [12] was Active. The outcome in the assay on LNCaP [13] and in the assay on PC-3 [14] was Active. In addition, the inhibition result with LNCaP [5], in the assay with LNCaP [6] and in the assay on LNCaP [10] was “Active” in each case. Moreover, the negative-log IC50 (pIC50) with LNCaP [1] was 4.54; in the assay on PC-3 [2] it was 4.19; with NHDF it was under 4.00; in the assay with A-375 [3], 4.50.

Regarding `CNC1=C([N+](=O)[O-])C(c2cccc(F)c2)Nc2ncnn21` (configuration not stated), the pIC50 was under 4.00 in the assay with LNCaP [1], 4.25 with PC-3 [2], under 4.00 in the assay with NHDF and 4.21 in the assay with A-375 [3].

As to `CNc1c([N+](=O)[O-])c(-c2ccncc2)nc2ncnn12`, the negative-log IC50 (pIC50) with LNCaP [1] was 4.50; in the assay on PC-3 [2], under 4.00; with NHDF, under 4.00; in the assay on A-375 [3] it was under 4.00.

Regarding `CNC1=C([N+](=O)[O-])C(c2ccc(Br)cc2)Nc2ncnn21` (configuration not stated), the negative logarithm of the IC50 (pIC50) with LNCaP [1], in the assay with PC-3 [2], with NHDF and in the assay with A-375 [3] was under 4.00 each time.

`COc1cc([C@@H]2c3cc4c(cc3[C@@H](O[C@@H]3O[C@@H]5CO[C@@H](C)O[C@H]5[C@H](O)[C@H]3O)[C@H]3COC(=O)[C@H]23)OCO4)cc(OC)c1O` [ETOPOSIDE]: the pIC50 with LNCaP [1] is 4.51; in the assay on PC-3 [2], 4.52; in the assay on NHDF, under 4.00; with A-375 [3], 4.61.

Consider `CNC1=C([N+](=O)[O-])C(c2ccccc2Cl)Nc2ncnn21` (configuration not stated), for which the negative logarithm of the IC50 (pIC50) is under 4.00 in the assay with LNCaP [1], 4.20 with PC-3 [2], under 4.00 with NHDF and under 4.00 in the assay on A-375 [3].

Broadly, the pIC50 is the IC50 on a negative log10 scale, so that one unit is a factor of ten.
